From patent US10561704B2, “Compositions and methods for treating neuropsychiatric disorders using an endothelin-B receptor agonist” (MIDWESTERN UNIVERSITY, priority 2013, dated 2020)
Marks after values point to notes of the source that are not given here. *1 amine or outer side, *2 acyl side, *3 side chain or, on linkers, in order; H or OH if unused. Where no end group is shown, it is not given here. Suc = O=C(CCC(=O)[*:2])[*:1]

Tests used:
[1] = tested on: Aβ induced oxidative stress in the rat brain; experiment: Oxidative stress markers (MDA, GSH, SOD) in brains of Aβ treated non-diabetic and diabetic rats; format: in vivo, Sprague-Dawley rats; details: for Brain malondialdehyde (MDA) level: IRL-1620 3 μg i.c.v. daily 14 days
Experimental: Male Sprague-Dawley rats (Harlan, Indianapolis, Ind.) weighing 280-310 g were allowed to acclimate for at least 4 days before use. Animals were housed in a room with controlled temperature (23±1° C.), humidity (50±10%), and light (6:00 A.M. to 6:00 P.M.). Food and water were available continuously. Animal care and use for experimental procedures were approved by the Institutional Animal Care and Use Committee (IACUC) of Midwestern University. All anesthetic and surgical procedures were in compliance with the guidelines established by the IACUC of Midwestern University.
Amyloid-β (1-40) (Tocris Bioscience, Ellisville, Mo., USA), IRL-1620 [N-Succinyl-[Glu9, Ala11,15] endothelin 1] (American Peptide Co, Inc., Sunnyvale, Calif., USA) and BQ788 (American Peptide Co, Inc., Sunnyvale, Calif., USA) were dissolved in sterile saline and all the solutions were freshly prepared before injections. Ketamine (Butler Animal Health Supply, Dublin, Ohio, USA) was administered at a dose of 100 mg/kg, intraperitoneally (i.p.), and xylazine (Lloyd Laboratories, Shenandoah, Iowa, USA) was administered at a dose of 10 mg/kg, i.p. Rats were anesthetized with ketamine (100 mg/kg) and xylazine (10 mg/kg) and a lateral cerebral ventricle was cannulated by placing the rat in a stereotaxic (David Kopf Instruments, Tujunga, Calif., USA) instrument and fixing the cannula (coordinates: 1.0 mm lateral, 1.5 mm caudal to bregma and 4.0 mm deep from the bone). Cannula (Plastics One, Roanoke, Va., USA) was anchored with dental acrylic to three screws placed in the skull. The animals were allowed to recover from surgery for at least seven days. After 7 days, rats were treated with vehicle, Aβ (1-40), ETB receptor agonist and/or antagonist in the lateral cerebral ventricles using the implanted cannula. Vehicle, Aβ or ETB receptor agonist and antagonist were injected in a volume of 5 μl over a period of 5 minutes. Aβ (1-40) was used because it is highly soluble compared to Aβ (1-42) and induces endothelial dysfunction of both cerebral and systemic blood vessels in addition to memory deficit (Nitta et al., 1994; Niwa et al., 2000; Smith et al., 2004; Weller et al., 1998). Agents were delivered using 10 μl Hamilton syringe and agent treatments were carried out individually using separate 10 μl syringe. IRL-1620 was administered 1 hour after Aβ injection whereas BQ788 was administered 15 minutes prior to IRL-1620 injection. At the end of the experiment, placement of cannula was confirmed by injecting methylene blue dye (5 μl) and observing the site and extent of staining. All experiments were performed on day 15 (Briyal et al., 2011). Water maze testing was performed from day 15 to day 19 after which animals were euthanized. Animals used for oxidative stress measurements were euthanized on day 15 without being subjected to any behavioral testing. Diabetes mellitus type 2 was induced in rats belonging to the diabetic group by administering freshly prepared streptozotocin at the dose of 45 mg/kg, i.p. Streptozotocin was dissolved in 0.01 M sodium citrate buffer of pH 4.3. On day 3, blood glucose was obtained from the rat-tail and tested for hyperglycemia using the SureStep Complete Blood Glucose monitor kit. Rats with blood glucose levels above 11.1 mM were considered diabetic. Diabetic and non-diabetic animals were randomly divided into five groups (6 rats per group) (i) Sham, (ii) Aβ+Vehicle, (iii) Aβ+IRL-1620, (iv) Aβ+BQ788 (v) Aβ+BQ788+IRL-1620. Aβ (1-40) was administered intracerebroventricularly (i.c.v.) (20 μg in 3 equally divided doses i.e. 6.67 μg were injected 3 times for a total of 20 μg dose) on day 1, 7, and 14. Specific ETB receptor agonist, IRL-1620 (3 μg) and specific ETB receptor antagonist, BQ788 (10 μg) were administered i.c.v. daily for 14 days starting from day 1 of Aβ injection. The doses of IRL-1620 and BQ788 were selected on the basis of previous studies conducted in our laboratory (Leonard et al., 2011). […]

[2] = tested on: middle cerebral artery occluded rats; experiment: Neurological deficit and motor function post middle cerebral artery occlusion; format: in vivo; details: for Distance Traveled (cm) / Foot Fault Error (%) / Grip Test (6 point scale) / Neurological Evaluation (6 point scale) / Rota Rod Duration / Vertical Breaks: MCAO rats
Experimental: Effect of IRL-1620 on neurological deficit following focal cerebral ischemia: In a preliminary study, the effect of selectively activating ETB receptors by IRL-1620 following permanent middle cerebral artery occlusion in rats was determined.

[3] = tested on: middle cerebral artery occluded rats; experiment: Infarct volume and edema 7 days post middle cerebral artery occlusion; format: in vivo
Experimental: FIG. 12: Two mm coronal sections of brains stained with TTC to visualize the infarct area 7 days post middle cerebral artery occlusion (red indicates normal tissue and white indicates infarct tissue). Representative slices from groups are shown. IRL-1620 (5 μg/kg, IV) or isotonic saline (1 ml/kg, IV) was injected at 2, 4, and 6 hr post MCAO. BQ-788 (1 mg/kg, IV) was administered once 15 min prior to the first injection of IRL-1620 or vehicle.

[4] = tested on: middle cerebral artery occluded rats; experiment: 7 day survival following focal cerebral ischemia (MCAO); format: in vivo
Experimental: FIG. 13: Effect of ETB receptor agonist, IRL-1620, in presence and absence of BQ788 on 7 day survival of rats undergoing either sham surgery or middle cerebral artery occlusion.
Effect of IRL-1620 on 7 day survival of rats following focal cerebral ischemia: Studies were also conducted to determine the effect of stimulating ETB receptors using a selective agonist, IRL-1620, in rats with middle cerebral artery occlusion (MCAO). […] However, MCAO rats in the vehicle treated group presented with 38% mortality by 7th day. […] Preliminary results and supporting literature have prompted the investigation of the mechanism involved in neuroprotective and neurorestorative effects of stimulating ETB receptors in rats with cerebral ischemia.

[5] = Aβ treated diabetic rats, day 15
[6] = Aβ treated non-diabetic rats, day 15

Molecule	Distance Traveled (cm) ([2]; Baseline)	Foot Fault Error (%) ([2]; Baseline)	Grip Test (6 point scale) ([2]; Baseline)	Neurological Evaluation (6 point scale) ([2]; Baseline)	Rota Rod Duration ([2]; Baseline)	Vertical Breaks ([2]; Baseline)	Distance Traveled (cm) ([2]; Day 1)	Foot Fault Error (%) ([2]; Day 1)	Grip Test (6 point scale) ([2]; Day 1)	Neurological Evaluation (6 point scale) ([2]; Day 1)	Rota Rod Duration ([2]; Day 1)	Vertical Breaks ([2]; Day 1)	Distance Traveled (cm) ([2]; Day 4)	Foot Fault Error (%) ([2]; Day 4)	Grip Test (6 point scale) ([2]; Day 4)	Neurological Evaluation (6 point scale) ([2]; Day 4)	Rota Rod Duration ([2]; Day 4)	Vertical Breaks ([2]; Day 4)	Distance Traveled (cm) ([2]; Day 7)	Foot Fault Error (%) ([2]; Day 7)	further results
CCCC[C@@H](NC(=O)[C@@H](Cc1cn(C(=O)OC)c2ccccc12)NC(=O)[C@H](CC(C)(C)C)NC(=O)N1[C@H](C)CCC[C@@H]1C)C(=O)O [BQ788, reference compound]	5141 ± 285 cm	5.96 ± 1.75%	3.33 ± 0.33	0 ± 0	102.00 ± 5.14 s	55.17 ± 3.74	1168 ± 417 cm	52.12 ± 11.93*^@ %	0.67 ± 0.33*^@	3.00 ± 0.58*^@	37.83 ± 20.87 s	5.33 ± 2.47	1246 ± 410 cm	68.89 ± 12.27*^@ %	0.33 ± 0.24	3.33 ± 0.62*^@	37.67 ± 14.92 s	4.33 ± 1.52	2280 ± 836 cm	75.00 ± 17.67*^@ %	Brain superoxide dismutase (SOD) level ([1]; Aβ treated diabetic rats, pretreated with BQ788 prior to IRL-1620): 16.52±0.45 U/mg protein; Brain superoxide dismutase (SOD) level ([1]; Aβ treated non-diabetic rats, pretreated with BQ788 prior to IRL-1620): 15.32±0.44 U/mg protein; IRL-1620 induced change in MDA levels ([1]; Aβ treated rats, BQ788 administered prior to IRL-1620): blocked; Brain reduced glutathione (GSH) level ([1]; Aβ treated rats, pretreatment with BQ788 before IRL-1620, diabetic status not stated): 81.2±5.49 μg/g wet tissue; Grip Test (6 point scale) ([2]; Day 7): 1.67 ± 0.62; Neurological Evaluation (6 point scale) ([2]; Day 7): 3.00 ± 0.82*^@; Rota Rod Duration ([2]; Day 7): 49.67 ± 17.56 s; Vertical Breaks ([2]; Day 7): 11.00 ± 3.97; Edema ([3]; MCAO 7 days, BQ-788 followed by IRL-1620): 17.97±5.17%; Edema ([3]; MCAO 7 days, BQ-788 followed by vehicle): 17.02±3.17%; Infarct volume ([3]; MCAO 7 days, BQ-788 given with either vehicle or IRL-1620): did not reduce; Mortality during 7 day observation [4]: 25%
Suc-Asp-Glu-Glu-Ala-Val-Tyr-Phe-Ala-His-Leu-Asp-Ile-Ile-Trp (Suc-DEEAVYFAHLDIIW) [IRL-1620]	5073 ± 334 cm	4.05 ± 1.31%	3.86 ± 0.46	0 ± 0	113.29 ± 8.34 s	61.50 ± 4.94	1611 ± 325 cm	18.85 ± 6.48 %	2.71 ± 0.52	1.29 ± 0.36	78.71 ± 22.59 s	12.75 ± 4.76	2898 ± 451 cm	14.00 ± 3.66 %	2.33 ± 0.58	0.67 ± 0.22	97.33 ± 2.08 s	26.33 ± 2.08	3472 ± 732 cm	8.28 ± 1.09 %	Brain malondialdehyde (MDA) level [1, 5]: 315.09±5.25 nmol/g wet tissue; Brain reduced glutathione (GSH) level [1, 5]: 166.42±6.63 μg/g wet tissue; Brain superoxide dismutase (SOD) level [1, 5]: 21.4±1.65 U/mg protein; Brain malondialdehyde (MDA) level [1, 6]: 278.47±8.55 nmol/g wet tissue; Brain reduced glutathione (GSH) level [1, 6]: 192.74±6.26 μg/g wet tissue; Brain superoxide dismutase (SOD) level [1, 6]: 22.26±1.16 U/mg protein; Grip Test (6 point scale) ([2]; Day 7): 3.33 ± 0.22; Neurological Evaluation (6 point scale) ([2]; Day 7): 0.67 ± 0.22; Rota Rod Duration ([2]; Day 7): 123.67 ± 7.28 s; Vertical Breaks ([2]; Day 7): 34.33 ± 3.78; Neurological and motor function tests ([2]; preliminary study, 24 hours after permanent MCAO, vs vehicle-treated): significant improvement; Edema: infarcted hemisphere larger than non-infarcted hemisphere ([3]; MCAO 7 days): 1.51±1.81%; Infarct volume ([3]; MCAO for 7 days, IRL-1620 5 μg/kg IV at 2, 4, 6 hr post MCAO): 54.06±14.12 mm^3; Reduction of infarct volume ([3]; chronic study, 1 week (Leonard et al., 2012)): 69.49%; Mortality during 7 day observation [4]: no mortality
